Measured values published in ChEMBL document CHEMBL3885881, “DrugMatrix”.

Species: Rattus norvegicus
Experiment: DrugMatrix - Regimen: Daily Repeat
Assay type: toxicity, organism-based, Sprague-Dawley
Set-up: regimen Daily Repeat, gender Male, age 6-8 weeks
Settings: in vivo, po, route oral GAVAGE, vehicle .5 % CMC; for ABSOLUTE BASOPHIL / ABSOLUTE EOSINOPHIL / ABSOLUTE LYMPHOCYTE / ABSOLUTE MONOCYTE / ABSOLUTE SEGMENTED NEUTROPHIL / BASOPHIL / EOSINOPHIL / ERYTHROCYTE COUNT / HEMATOCRIT / HEMOGLOBIN / LEUKOCYTE COUNT / LYMPHOCYTE / MEAN CORPUSCULAR HEMOGLOBIN / MEAN CORPUSCULAR HEMOGLOBIN CONCENTRATION / MONOCYTE / NEUTROPHIL / NUCLEATED RED BLOOD CELLS / PLATELET COUNT: tissue Blood; for ALANINE AMINOTRANSFERASE / ALBUMIN / ALKALINE PHOSPHATASE / ASPARTATE AMINOTRANSFERASE / BLOOD UREA NITROGEN / CARBON DIOXIDE / CHLORIDE / CHOLESTEROL / CREATINE PHOSPHOKINASE / CREATININE / GLUCOSE / LACTATE DEHYDROGENASE / LIPASE / PHOSPHORUS / POTASSIUM / SODIUM / TOTAL BILIRUBIN / TOTAL PROTEIN / URIC ACID: tissue Plasma
[1] = 0 mg/kg, 72 h, dose level Control, time 3 day
[2] = 0 mg/kg, 120 h, dose level Control, time 5 day
[3] = 3 mg/kg, 72 h, dose level Low, time 3 day

COc1cc2nc(N3CCN(C(=O)c4ccco4)CC3)nc(N)c2cc1OC [PRAZOSIN]
ABSOLUTE BASOPHIL [1]: 0 CELLS/uL
ABSOLUTE EOSINOPHIL [1]: 171.33 CELLS/uL
ABSOLUTE LYMPHOCYTE [1]: 13776.5 CELLS/uL
ABSOLUTE MONOCYTE [1]: 180.83 CELLS/uL
ABSOLUTE SEGMENTED NEUTROPHIL [1]: 1121.33 CELLS/uL
BASOPHIL [1]: 0%
EOSINOPHIL [1]: 1%
ERYTHROCYTE COUNT [1]: 5.56 x10E6/uL
HEMATOCRIT [1]: 34.75%
HEMOGLOBIN [1]: 13.68 G/DL
LEUKOCYTE COUNT [1]: 15.25 x10E3/uL
LYMPHOCYTE [1]: 90.17%
MEAN CORPUSCULAR HEMOGLOBIN [1]: 24.6 pg
MEAN CORPUSCULAR HEMOGLOBIN CONCENTRATION [1]: 39.4 G/DL
MONOCYTE [1]: 1.17%
NEUTROPHIL [1]: 7.67%
NUCLEATED RED BLOOD CELLS [1]: 0 /100WBC
PLATELET COUNT [1]: 1342 x10E3/uL
ALANINE AMINOTRANSFERASE [1]: 49.67 u/L
ALBUMIN [1]: 4.15 G/DL
ALKALINE PHOSPHATASE [1]: 346.83 u/L
ASPARTATE AMINOTRANSFERASE [1]: 108.17 u/L
BLOOD UREA NITROGEN [1]: 17.33 mg/dL
CARBON DIOXIDE [1]: 25 mmol/L
CHLORIDE [1]: 100.83 MEQ/L
CHOLESTEROL [1]: 66.83 mg/dL
CREATINE PHOSPHOKINASE [1]: 788 u/L
CREATININE [1]: 0.18 mg/dL
GLUCOSE [1]: 151.67 mg/dL
LACTATE DEHYDROGENASE [1]: 982.5 u/L
LIPASE [1]: 10.33 u/L
PHOSPHORUS [1]: 11.23 mg/dL
POTASSIUM [1]: 6.37 MEQ/L
SODIUM [1]: 141.02 MEQ/L
TOTAL BILIRUBIN [1]: 0.18 mg/dL
TOTAL PROTEIN [1]: 5.9 G/DL
URIC ACID [1]: 1.8 mg/dL
ABSOLUTE BASOPHIL [2]: 0 CELLS/uL
ABSOLUTE EOSINOPHIL [2]: 69 CELLS/uL
ABSOLUTE LYMPHOCYTE [2]: 13632.83 CELLS/uL
ABSOLUTE MONOCYTE [2]: 139.83 CELLS/uL
ABSOLUTE SEGMENTED NEUTROPHIL [2]: 1225 CELLS/uL
BASOPHIL [2]: 0%
EOSINOPHIL [2]: 0.33%
ERYTHROCYTE COUNT [2]: 5.52 x10E6/uL
HEMATOCRIT [2]: 33.98%
HEMOGLOBIN [2]: 13.22 G/DL
LEUKOCYTE COUNT [2]: 15.07 x10E3/uL
LYMPHOCYTE [2]: 90.83%
MEAN CORPUSCULAR HEMOGLOBIN [2]: 23.95 pg
MEAN CORPUSCULAR HEMOGLOBIN CONCENTRATION [2]: 38.9 G/DL
MONOCYTE [2]: 0.83%
NEUTROPHIL [2]: 8%
NUCLEATED RED BLOOD CELLS [2]: 0 /100WBC
PLATELET COUNT [2]: 1196 x10E3/uL
ALANINE AMINOTRANSFERASE [2]: 49.17 u/L
ALBUMIN [2]: 4.2 G/DL
ALKALINE PHOSPHATASE [2]: 352.33 u/L
ASPARTATE AMINOTRANSFERASE [2]: 89.67 u/L
BLOOD UREA NITROGEN [2]: 18 mg/dL
CARBON DIOXIDE [2]: 27.67 mmol/L
CHLORIDE [2]: 101 MEQ/L
CHOLESTEROL [2]: 72.83 mg/dL
CREATINE PHOSPHOKINASE [2]: 417.5 u/L
CREATININE [2]: 0.18 mg/dL
GLUCOSE [2]: 150.5 mg/dL
LACTATE DEHYDROGENASE [2]: 517.33 u/L
LIPASE [2]: 9 u/L
PHOSPHORUS [2]: 11.87 mg/dL
POTASSIUM [2]: 6.57 MEQ/L
SODIUM [2]: 143.62 MEQ/L
TOTAL BILIRUBIN [2]: 0.2 mg/dL
TOTAL PROTEIN [2]: 6.08 G/DL
URIC ACID [2]: 1.45 mg/dL
ABSOLUTE BASOPHIL [3]: 0 CELLS/uL
ABSOLUTE EOSINOPHIL [3]: 118.67 CELLS/uL
ABSOLUTE LYMPHOCYTE [3]: 13015.33 CELLS/uL
ABSOLUTE MONOCYTE [3]: 208 CELLS/uL
ABSOLUTE SEGMENTED NEUTROPHIL [3]: 1224.67 CELLS/uL
BASOPHIL [3]: 0%
EOSINOPHIL [3]: 0.67%
ERYTHROCYTE COUNT [3]: 5.43 x10E6/uL
HEMATOCRIT [3]: 33.53%
HEMOGLOBIN [3]: 13.07 G/DL
LEUKOCYTE COUNT [3]: 14.57 x10E3/uL
LYMPHOCYTE [3]: 89.67%
MEAN CORPUSCULAR HEMOGLOBIN [3]: 24.1 pg
MEAN CORPUSCULAR HEMOGLOBIN CONCENTRATION [3]: 38.97 G/DL
MONOCYTE [3]: 1.33%
NEUTROPHIL [3]: 8.33%
NUCLEATED RED BLOOD CELLS [3]: 0 /100WBC
PLATELET COUNT [3]: 1384.67 x10E3/uL
ALANINE AMINOTRANSFERASE [3]: 59.67 u/L
ALBUMIN [3]: 3.97 G/DL
ALKALINE PHOSPHATASE [3]: 505 u/L
ASPARTATE AMINOTRANSFERASE [3]: 74.67 u/L
BLOOD UREA NITROGEN [3]: 13.33 mg/dL
CARBON DIOXIDE [3]: 24.33 mmol/L
CHLORIDE [3]: 102 MEQ/L
CHOLESTEROL [3]: 70 mg/dL
CREATINE PHOSPHOKINASE [3]: 271 u/L
CREATININE [3]: 0.22 mg/dL
GLUCOSE [3]: 128.67 mg/dL
LACTATE DEHYDROGENASE [3]: 254.33 u/L
LIPASE [3]: 10.67 u/L
PHOSPHORUS [3]: 12.33 mg/dL
POTASSIUM [3]: 6.67 MEQ/L
SODIUM [3]: 142.25 MEQ/L
TOTAL BILIRUBIN [3]: 0.2 mg/dL
TOTAL PROTEIN [3]: 5.63 G/DL
URIC ACID [3]: 1.43 mg/dL
